Data set [1] has as its system noncancerous human hepatocyte cells (LO2). Description: MTT cytotoxic assay, LO2. Format: cell-based. The following applies: 48 h exposure, noncancerous hepatocytes. The protocol: (§1) All the compounds (1–3, 4a–o) were evaluated for their in vitro cytotoxic activity against three cancer cell lines including human breast cancer cell line (MCF-7), human hepatocarcinoma cell line (SMMC-7721), human cervical carcinoma cell line (HeLa), and a noncancerous human hepatocyte cell line (LO2) using the MTT assay method. An anticancer drug etoposide (VP-16) was co-assayed as the positive control. The results of the test compounds shown as IC50 values (concentration required to inhibit tumor cell proliferation by 50%), are listed in Table 1.
(§2) The in vitro cytotoxic activities of the quinoxaline derivatives of DAA were evaluated against a human breast cancer cell line (MCF-7), human hepatocarcinoma cell line (SMMC-7721), human cervical carcinoma cell line (HeLa) and noncancerous human hepatocyte cells (LO2) via the MTT colorimetric method. Briefly, different tumor cells were grown in DMEM supplemented with 10% fetal bovine serum, penicillin (100 U/mL), and streptomycin (50 μg/mL). Cells were harvested at the log phase of growth and seeded in 96-well plates (100 μL/well at a density of 2 × 10^5 cells/mL). After 24 h of incubation at 37 °C and 5% CO2 to allow for cell attachment, cultures were exposed to various concentrations of the isolated compounds for 48 h. Finally, the MTT solution (2.5 mg/mL in PBS) was added (40 μL/well). Plates were further incubated for 4 h at 37 °C, and the formazan crystals formed were dissolved by adding 150 μL/well of DMSO. Absorption at 570 nm was measured with an ELISA plate reader. The results were expressed as IC50 values with standard deviations, which were defined as the concentrations at which a 50% survival of the cells was discerned. Etoposide (VP-16) was co-assayed as the positive control.
(In general: Formazan colour is commonly taken as a measure of viable cells.)

In data set [2] the test system is human cervical carcinoma cell line (HeLa). Description: MTT cytotoxic assay, HeLa. In kind it is cell-based. To be noted: 48 h exposure. Here is the method: as §1, §2
The test system of data set [3] is three cancer cell lines (MCF-7, SMMC-7721, HeLa). In words: MTT cytotoxic assay, summary statements over the three cancer cell lines. Format: cell-based, human. The following applies: for IC50: Homo sapiens, at least one of MCF-7, SMMC-7721, HeLa, strong cytotoxicity, read-out: IC50 against at least one cancer cell line; for cytotoxic activity against the three cancer cell lines (in words): MCF-7, SMMC-7721, HeLa. Here is the method: as §1, §2

Data set [4] deals with human hepatocarcinoma cell line (SMMC-7721). In words: MTT cytotoxic assay, SMMC-7721. In kind it is cell-based. To be noted: 48 h exposure. Here is the method: as §1, §2
Data set [5] has as its system human breast cancer cell line (MCF-7). Description: MTT cytotoxic assay, MCF-7. In kind it is cell-based. To be noted: MCF7, 48 h exposure. The protocol:
as §1, §2

Broadly, the IC50 is the point on the concentration scale where inhibition reaches its midpoint.

As for `COC(=O)[C@]1(C)CCC[C@]2(C)c3cc(Br)c4nc(Cn5ccnn5)c(Cn5ccnn5)nc4c3CCC12` (stereo partly drawn) [Compound 4m, Methyl 12-bromo-2′,3′-bis((1H-1,2,3-triazol-1-yl)methyl)-13,14-pyrazinyl-deisopropyl-dehydroabietate], the 50% inhibitory concentration (IC50) in data set [1] was 18.4 ± 1.73 µM; in data set [2] it was 2.18 ± 0.37 µM; in data set [3], less than 10 µM; in data set [4], 4.66 ± 0.42 µM; in data set [5], 3.73 ± 0.62 µM.

On to `CCCN(CCC)Cc1nc2c(Br)cc3c(c2nc1CN(CCC)CCC)CCC1[C@](C)(C(=O)OC)CCC[C@]31C` (stereo partly drawn) [Compound 4c, Methyl 12-bromo-2′,3′-bis((dipropylamino)methyl)-13,14-pyrazinyldeisopropyl-dehydroabietate], for which the concentration for half-maximal inhibition (IC50) in data set [1] is more than 50 µM; in data set [2], 8.67 ± 0.65 µM; in data set [4], 11 ± 0.58 µM; in data set [5], 21 ± 1.27 µM.

Regarding `COC(=O)[C@]1(C)CCC[C@]2(C)c3cc(Br)c4nc(CN5CCCCCC5)c(CN5CCCCCC5)nc4c3CCC12` (stereo partly drawn) [Compound 4g, Methyl 2′,3′-bis(azepan-1-ylmethyl)-12-bromo-13,14-pyrazinyldeisopropyl-dehydroabietate], the IC50 is more than 50 µM in data set [1], 32 ± 4.21 µM in data set [2], 27.9 ± 2.91 µM in data set [4] and more than 50 µM in data set [5]. Also, the “cytotoxic activity against the three cancer cell lines (in words)” value (shortened to “cytotoxic activity”) in data set [3] was “weak activity”.

For the compound `COC(=O)[C@]1(C)CCC[C@]2(C)c3cc(Br)c4nc(Cn5ncnn5)c(Cn5ncnn5)nc4c3CCC12` (stereo partly drawn) [Compound 4o, Methyl 12-bromo-2′, 3′-bis((2H-tetrazol-2-yl)methyl)-13,14-pyrazinyl-deisopropyl-dehydroabietate], the IC50 in data set [1] was more than 50 µM; in data set [2] it was 20.5 ± 3.12 µM; in data set [4], 16.9 ± 1.95 µM; in data set [5], 24.4 ± 1.69 µM. Also, in data set [3], the “cytotoxic activity” value was “moderate cytotoxic activity”.

For the compound `COC(=O)[C@]1(C)CCC[C@]2(C)c3cc(Br)c4nc(Cn5ccnc5)c(Cn5ccnc5)nc4c3CCC12` (stereo partly drawn) [Compound 4l, Methyl 12-bromo-2′,3′-bis((1H-imidazol-1-yl)methyl)-13,14-pyrazinyl-deisopropyl-dehydroabietate], the concentration for half-maximal inhibition (IC50) in data set [1] is more than 50 µM; in data set [2], 12.7 ± 1.35 µM; in data set [4], 15.3 ± 2.06 µM; in data set [5], 22.8 ± 3.21 µM. Moreover, the “cytotoxic activity” value in data set [3] is “moderate cytotoxic activity”.

Turning to `CC(C)c1ccc2c(c1)CC[C@H]1[C@](C)(C(=O)O)CCC[C@]21C` [Compound 1, Dehydroabietic acid], the half-inhibitory concentration (IC50) in data set [1], in data set [2], in data set [4] and in data set [5] was more than 50 µM throughout.

On to `COC(=O)[C@]1(C)CCC[C@]2(C)c3cc(Br)c4nc(CN5CCCCC5)c(CN5CCCCC5)nc4c3CCC12` (stereo partly drawn) [Compound 4f, Methyl 12-bromo-2′,3′-bis(piperidin-1-ylmethyl)-13,14-pyrazinyldeisopropyl-dehydroabietate], for which the IC50 is 42.2 ± 2.78 µM in data set [1]; 5.98 ± 0.37 µM in data set [2]; less than 10 µM in data set [3]; 7.71 ± 0.82 µM in data set [4]; 8.95 ± 0.63 µM in data set [5].

As to `COC(=O)[C@]1(C)CCC[C@]2(C)c3cc(Br)c4nc(CN5CCNCC5)c(CN5CCNCC5)nc4c3CCC12` (stereo partly drawn) [Compound 4i, Methyl 12-bromo-2′,3′-bis(piperazin-1-ylmethyl)-13,14-pyrazinyldeisopropyl-dehydroabietate], the 50% inhibitory concentration (IC50) in data set [1] was 21.9 ± 2.7 µM; in data set [2], 5.05 ± 0.72 µM; in data set [3], less than 10 µM; in data set [4] it was 4.32 ± 0.64 µM; in data set [5], 5.89 ± 0.56 µM.

For `CCN1CCN(Cc2nc3c(Br)cc4c(c3nc2CN2CCN(CC)CC2)CCC2[C@](C)(C(=O)OC)CCC[C@]42C)CC1` (stereo partly drawn) [Compound 4k, Methyl 12-bromo-2′,3′-bis((4-ethylpiperazin-1-yl)methyl)-13,14-pyrazinyl-deisopropyl-dehydroabietate], the 50% inhibitory concentration (IC50) is more than 50 µM in data set [1], 13.5 ± 2.21 µM in data set [2], 26.4 ± 3.73 µM in data set [4] and 38.7 ± 2.87 µM in data set [5]. In data set [3], the “cytotoxic activity” value is on record as “moderate cytotoxic activity”.

`COC(=O)[C@]1(C)CCC[C@]2(C)c3cc(Br)c4nc(Cn5cnnn5)c(Cn5cnnn5)nc4c3CCC12` (stereo partly drawn) [Compound 4n, Methyl 12-bromo-2′,3′-bis((1H-tetrazol-1-yl)methyl)-13,14-pyrazinyl-deisopropyl-dehydroabietate]: the IC50 in data set [1] is more than 50 µM; in data set [2] it was 13.3 ± 2.71 µM; in data set [4], 10.9 ± 1.68 µM; in data set [5], 15.8 ± 0.81 µM. Also, the “cytotoxic activity” value in data set [3] is reported as “moderate cytotoxic activity”.

On to `CCCCN(CCCC)Cc1nc2c(Br)cc3c(c2nc1CN(CCCC)CCCC)CCC1[C@](C)(C(=O)OC)CCC[C@]31C` (stereo partly drawn) [Compound 4d, Methyl 12-bromo-2′,3′-bis((dibutylamino)methyl)-13,14-pyrazinyldeisopropyl-dehydroabietate], for which the half-inhibitory concentration (IC50) was more than 50 µM in data set [1], 25.3 ± 3.01 µM in data set [2], 32.7 ± 2.69 µM in data set [4] and 28.1 ± 0.92 µM in data set [5]. The “cytotoxic activity” value in data set [3] is recorded as “weak activity”.

`COC(=O)[C@]1(C)CCC[C@]2(C)c3cc(Br)c4nc(CN5CCOCC5)c(CN5CCOCC5)nc4c3CCC12` (stereo partly drawn) [Compound 4h, Methyl 12-bromo-2′,3′-bis(morpholinomethyl)-13,14-pyrazinyldeisopropyl-dehydroabietate]: the IC50 in data set [1] was 36.6 ± 3.12 µM; in data set [2], 9.67 ± 1.13 µM; in data set [4], 16.3 ± 1.85 µM; in data set [5], 12.3 ± 1.03 µM.

Turning to `COC(=O)[C@]1(C)CCC[C@]2(C)c3cc(Br)c4nc(CBr)c(CBr)nc4c3CCC12` (stereo partly drawn) [Compound 3], the 50% inhibitory concentration (IC50) was more than 50 µM in data set [1], 37.7 ± 3.75 µM in data set [2], 45.8 ± 5.28 µM in data set [4] and more than 50 µM in data set [5]. In addition, the “cytotoxicity to HeLa and/or SMMC-7721 cell lines (in words)” value in data set [3] (HeLa and/or SMMC-7721) was “mild cytotoxicity”.

For the compound `COc1cc([C@@H]2c3cc4c(cc3[C@@H](O[C@@H]3O[C@@H]5CO[C@@H](C)O[C@H]5[C@H](O)[C@H]3O)[C@H]3COC(=O)[C@H]23)OCO4)cc(OC)c1O` [Etoposide, reference compound], the IC50 amounted to 8.89 ± 0.38 µM in data set [1], 0.87 ± 0.16 µM in data set [2], 0.69 ± 0.18 µM in data set [4] and 0.73 ± 0.07 µM in data set [5].

In the case of `COC(=O)[C@]1(C)CCC[C@]2(C)c3cc(Br)c4nc(CN(C)C)c(CN(C)C)nc4c3CCC12` (stereo partly drawn) [Compound 4a, Methyl 12-bromo-2′,3′-bis((dimethylamino)methyl)-13,14-pyrazinyldeisopropyl-dehydroabietate], the half-maximal inhibitory concentration (IC50) in data set [1] was 15.7 ± 0.65 µM; in data set [2], 2.08 ± 0.43 µM; in data set [4], 1.65 ± 0.22 µM; in data set [5], 2.36 ± 0.29 µM.

In the case of `COC(=O)[C@]1(C)CCC[C@]2(C)c3cc(Br)c4nc(CN5CCN(C)CC5)c(CN5CCN(C)CC5)nc4c3CCC12` (stereo partly drawn) [Compound 4j, Methyl 12-bromo-2′,3′-bis((4-methylpiperazin-1-yl)methyl)-13,14-pyrazinyl-deisopropyl-dehydroabietate], the IC50 in data set [1] was 29.5 ± 3.61 µM; in data set [2], 6.62 ± 0.59 µM; in data set [3], less than 10 µM; in data set [4] it was 8.03 ± 0.7 µM; in data set [5], 12.2 ± 0.75 µM.
